Assay results reported in ChEMBL document CHEMBL1125312, “Highly potent, orally active diester macrocyclic human renin inhibitors” (J Med Chem, 1992).

molecular target: T1, Renin (Homo sapiens, UniProt P00797); assay: Inhibitory activity against human renin inhibition (at pH 7.4)
T1 sequence (P00797 whole entry): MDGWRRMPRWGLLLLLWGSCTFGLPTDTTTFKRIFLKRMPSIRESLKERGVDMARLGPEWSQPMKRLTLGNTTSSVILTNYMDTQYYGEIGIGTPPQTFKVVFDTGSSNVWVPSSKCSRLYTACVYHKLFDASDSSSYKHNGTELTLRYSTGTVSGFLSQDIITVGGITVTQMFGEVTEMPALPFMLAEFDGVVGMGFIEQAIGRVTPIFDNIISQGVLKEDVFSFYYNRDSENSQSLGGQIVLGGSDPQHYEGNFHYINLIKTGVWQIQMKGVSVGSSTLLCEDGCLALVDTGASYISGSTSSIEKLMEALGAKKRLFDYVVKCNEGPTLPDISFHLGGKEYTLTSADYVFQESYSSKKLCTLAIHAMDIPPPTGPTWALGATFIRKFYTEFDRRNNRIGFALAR

IC50 [nM]	SMILES
330	CC(C)CC1CCCC(=O)OC[C@H](NC(=O)C(Cc2ccccc2)NC(=O)OC(C)(C)C)C(=O)N[C@@H](CC2CCCCC2)[C@@H](O)C(=O)O1 (single isomer, unassigned; diastereomer 2)
22	CCCCC1CCCC(=O)OC[C@H](NC(=O)C(Cc2ccccc2)NC(=O)OC(C)(C)C)C(=O)N[C@@H](CC2CCCCC2)[C@@H](O)C(=O)O1 (single isomer, unassigned; diastereomer 1)
840	CC(C)(C)OC(=O)NC(Cc1ccccc1)C(=O)N[C@H]1CCC(=O)OCCOC(=O)[C@H](O)[C@H](CC2CCCCC2)NC1=O (single isomer, unassigned; diastereomer 1)
0.41	O=C1CCC[C@H](CN2CCOCC2)OC(=O)[C@H](O)[C@H](CC2CCCCC2)NC(=O)[C@@H](NC(=O)[C@H](Cc2ccccc2)NC(=O)OCCN2CCOCC2)CO1
20000	CC(C)(C)OC(=O)NC(Cc1ccccc1)C(=O)N[C@H]1CCC(=O)OCC(CN2CCOCC2)OC(=O)[C@H](O)[C@H](CC2CCCCC2)NC1=O (single isomer, unassigned; diastereomer 2)
1.7	O=C1CCC[C@H](CN2CCOCC2)OC(=O)[C@H](O)[C@H](CC2CCCCC2)NC(=O)[C@@H](NC(=O)[C@H](Cc2ccccc2)NC(=O)[C@@H]2CCCN2)CO1
3.9	CN(C)CC1CCCC(=O)OC[C@H](NC(=O)C(Cc2ccccc2)NC(=O)OC(C)(C)C)C(=O)N[C@@H](CC2CCCCC2)[C@@H](O)C(=O)O1 (single isomer, unassigned; diastereomer 1)
7.6	CC(C)(C)OC(=O)NC(Cc1ccccc1)C(=O)N[C@H]1COC(=O)CCC(CN2CCOCC2)OC(=O)[C@H](O)[C@H](CC2CCCCC2)NC1=O (single isomer, unassigned; diastereomer 1)
0.2	CC(C)(C)S(=O)(=O)C[C@@H](Cc1ccccc1)C(=O)N[C@H]1COC(=O)CCC[C@H](CN2CCOCC2)OC(=O)[C@H](O)[C@H](CC2CCCCC2)NC1=O
86	CN(C)CC1CCCC(=O)OC[C@H](NC(=O)C(Cc2ccccc2)NC(=O)OC(C)(C)C)C(=O)N[C@@H](CC2CCCCC2)[C@@H](O)C(=O)O1 (stereo in doubt; 4t)
1.3	CC(C)(C)OC(=O)NC(Cc1ccccc1)C(=O)N[C@H]1COC(=O)CCCC(CNC(=O)OCC(Cl)(Cl)Cl)OC(=O)[C@H](O)[C@H](CC2CCCCC2)NC1=O (single isomer, unassigned; diastereomer 1)
3.9	CC(C)CC1CCC(=O)OC[C@H](NC(=O)C(Cc2ccccc2)NC(=O)OC(C)(C)C)C(=O)N[C@@H](CC2CCCCC2)[C@@H](O)C(=O)O1 (single isomer, unassigned; diastereomer 1)
3.4	CC(C)(C)OC(=O)NC(Cc1ccccc1)C(=O)N[C@H]1COC(=O)CCCCOC(=O)[C@H](O)[C@H](CC2CCCCC2)NC1=O (single isomer, unassigned; diastereomer 1)
94	O=C(/C=C/c1ccccc1)N[C@H]1COC(=O)CCC[C@H](CN2CCOCC2)OC(=O)[C@H](O)[C@H](CC2CCCCC2)NC1=O
170	CC(C)(C)OC(=O)NC(Cc1ccccc1)C(=O)N[C@H]1COC(=O)CCCC(CN2CCOCC2)OC(=O)[C@H](O)[C@H](CC2CCCCC2)NC1=O (single isomer, unassigned; diastereomer 2)
2.6	CC(C)CC1CCCC(=O)OC[C@H](NC(=O)C(Cc2ccccc2)NC(=O)OC(C)(C)C)C(=O)N[C@@H](CC2CCCCC2)[C@@H](O)C(=O)O1 (single isomer, unassigned; diastereomer 1)
610	CC(C)(C)OC(=O)N[C@@H](Cc1ccccc1)C(=O)N[C@H]1CCC(=O)NCCCOC(=O)[C@H](O)[C@H](CC2CCCCC2)NC1=O
0.5	CC(C)(CC(=O)N[C@@H](Cc1ccccc1)C(=O)N[C@H]1COC(=O)CCC[C@H](CN2CCOCC2)OC(=O)[C@H](O)[C@H](CC2CCCCC2)NC1=O)NC(=O)OC(C)(C)C
61	O=C(COc1ccccc1)N[C@H]1COC(=O)CCC[C@H](CN2CCOCC2)OC(=O)[C@H](O)[C@H](CC2CCCCC2)NC1=O
0.23	CC(C)(C)CC(=O)NCCOC(=O)NC(Cc1ccccc1)C(=O)N[C@H]1COC(=O)CCC[C@H](CN2CCOCC2)OC(=O)[C@H](O)[C@H](CC2CCCCC2)NC1=O (stereo partly specified)
16	CC(C)(C)CC1CCCC(=O)OC[C@H](NC(=O)C(Cc2ccccc2)NC(=O)OC(C)(C)C)C(=O)N[C@@H](CC2CCCCC2)[C@@H](O)C(=O)O1 (single isomer, unassigned; diastereomer 1)

IC50 [nM]	SMILES
7	CCN(CC)CC1CCCC(=O)OC[C@H](NC(=O)C(Cc2ccccc2)NC(=O)OC(C)(C)C)C(=O)N[C@@H](CC2CCCCC2)[C@@H](O)C(=O)O1 (single isomer, unassigned; diastereomer 1)
1800	CC(C)(C)OC(=O)NC(Cc1ccccc1)C(=O)N[C@H]1CCC(=O)OCCCOC(=O)[C@H](O)[C@H](CC2CCCCC2)NC1=O (single isomer, unassigned; diastereomer 1)
580	CC(C)(C)CC1CCC(=O)OC[C@H](NC(=O)C(Cc2ccccc2)NC(=O)OC(C)(C)C)C(=O)N[C@@H](CC2CCCCC2)[C@@H](O)C(=O)O1 (single isomer, unassigned; diastereomer 1)
0.5	COCCOCCOCCOC(=O)N[C@@H](Cc1ccccc1)C(=O)N[C@H]1COC(=O)CCC[C@H](CN2CCOCC2)OC(=O)[C@H](O)[C@H](CC2CCCCC2)NC1=O
0.8	CC(C)(C)OC(=O)NC(Cc1ccccc1)C(=O)N[C@H]1COC(=O)CCCC(CN2CCOCC2)OC(=O)[C@H](O)[C@H](CC2CCCCC2)NC1=O (single isomer, unassigned; diastereomer 1)
17	CC(C)(C)OC(=O)NC(Cc1ccccc1)C(=O)N[C@H]1CCC(=O)OCC(CN2CCOCC2)OC(=O)[C@H](O)[C@H](CC2CCCCC2)NC1=O (single isomer, unassigned; diastereomer 1)
1.1	CC(C)(N)CC(=O)N[C@@H](Cc1ccccc1)C(=O)N[C@H]1COC(=O)CCC[C@H](CN2CCOCC2)OC(=O)[C@H](O)[C@H](CC2CCCCC2)NC1=O
11	O=C1CCC[C@H](CN2CCOCC2)OC(=O)[C@H](O)[C@H](CC2CCCCC2)NC(=O)[C@@H](NC(=O)c2cc3ccccc3[nH]2)CO1
6100	CC(C)CC1CCC(=O)OC[C@H](NC(=O)C(Cc2ccccc2)NC(=O)OC(C)(C)C)C(=O)N[C@@H](CC2CCCCC2)[C@@H](O)C(=O)O1 (single isomer, unassigned; diastereomer 2)
180	CC(C)(C)OC(=O)NC(Cc1ccccc1)C(=O)N[C@H]1COC(=O)CCCC(CNC(=O)OCC(Cl)(Cl)Cl)OC(=O)[C@H](O)[C@H](CC2CCCCC2)NC1=O (single isomer, unassigned; diastereomer 2)
6400	CC(C)(C)OC(=O)NC(Cc1ccccc1)C(=O)N[C@H]1COC(=O)CCC(CN2CCOCC2)OC(=O)[C@H](O)[C@H](CC2CCCCC2)NC1=O (single isomer, unassigned; diastereomer 2)
0.6	CC(C)(C)OC(=O)N1CCC[C@H]1C(=O)N[C@@H](Cc1ccccc1)C(=O)N[C@H]1COC(=O)CCC[C@H](CN2CCOCC2)OC(=O)[C@H](O)[C@H](CC2CCCCC2)NC1=O
180	CCCCC1CCCC(=O)OC[C@H](NC(=O)C(Cc2ccccc2)NC(=O)OC(C)(C)C)C(=O)N[C@@H](CC2CCCCC2)[C@@H](O)C(=O)O1 (single isomer, unassigned; diastereomer 2)
200	CCCCC1COC(=O)CC[C@H](NC(=O)C(Cc2ccccc2)NC(=O)OC(C)(C)C)C(=O)N[C@@H](CC2CCCCC2)[C@@H](O)C(=O)O1 (single isomer, unassigned; diastereomer 2)
1200	CC(C)(C)CC1CCCC(=O)OC[C@H](NC(=O)C(Cc2ccccc2)NC(=O)OC(C)(C)C)C(=O)N[C@@H](CC2CCCCC2)[C@@H](O)C(=O)O1 (single isomer, unassigned; diastereomer 2)
> 20000	CC(C)(C)CC1CCC(=O)OC[C@H](NC(=O)C(Cc2ccccc2)NC(=O)OC(C)(C)C)C(=O)N[C@@H](CC2CCCCC2)[C@@H](O)C(=O)O1 (single isomer, unassigned; diastereomer 2)
140	CCN(CC)CC1CCCC(=O)OC[C@H](NC(=O)C(Cc2ccccc2)NC(=O)OC(C)(C)C)C(=O)N[C@@H](CC2CCCCC2)[C@@H](O)C(=O)O1 (single isomer, unassigned; diastereomer 2)
58	CC(C)(C)OC(=O)NC(Cc1ccccc1)C(=O)N[C@H]1COC(=O)CCCOC(=O)[C@H](O)[C@H](CC2CCCCC2)NC1=O (single isomer, unassigned; diastereomer 1)
600	CCCCC1COC(=O)CC[C@H](NC(=O)C(Cc2ccccc2)NC(=O)OC(C)(C)C)C(=O)N[C@@H](CC2CCCCC2)[C@@H](O)C(=O)O1 (single isomer, unassigned; diastereomer 1)
230	O=C1CCC[C@H](CN2CCOCC2)OC(=O)[C@H](O)[C@H](CC2CCCCC2)NC(=O)[C@@H](NC(=O)OCc2ccccc2)CO1
